Laboratory results as given in BindingDB's records for patent US12304898 (Primegene (Beijing), 2025).

How the values were obtained:
[1] = biological target: Vascular endothelial growth factor receptor 2 (Homo sapiens, UniProt P35968); experiment: Inhibitory Activities of the Compounds on VEGFR2
Protocol: Detect compounds on VEGFR2 (KDR) by mobility shift assay. The initial test concentration of a compound was 1000 nM, 3 times dilution, 10 concentrations, and detection in duplicate. Nintedanib (Selleckchem, Cat. S1010) was used as the positive control compound. The operation method was briefly described as follows: kinase VEGFR2 (Carna, Cat. 08-191) at the final concentration of 0.5 nM and the test compound were mixed in the Optiplate-384F well plate and incubated for 10 minutes at room temperature. Then, ATP at a final concentration of 95 μM and 3 μM Kinase substrate 22 (Gill Biochemical (glbiochem), Cat. 112393) were added. After mixing, react at room temperature for 30 minutes. Add stop detection solution to terminate the reaction and read the conversion rate with Caliper EZ ReaderlI.

Histone deacetylase 6 = biological target: T1, Histone deacetylase 6 (Homo sapiens, UniProt Q9UBN7); experiment: Inhibitory Activity of the Compounds on HDAC6
T1 sequence (Q9UBN7 whole entry): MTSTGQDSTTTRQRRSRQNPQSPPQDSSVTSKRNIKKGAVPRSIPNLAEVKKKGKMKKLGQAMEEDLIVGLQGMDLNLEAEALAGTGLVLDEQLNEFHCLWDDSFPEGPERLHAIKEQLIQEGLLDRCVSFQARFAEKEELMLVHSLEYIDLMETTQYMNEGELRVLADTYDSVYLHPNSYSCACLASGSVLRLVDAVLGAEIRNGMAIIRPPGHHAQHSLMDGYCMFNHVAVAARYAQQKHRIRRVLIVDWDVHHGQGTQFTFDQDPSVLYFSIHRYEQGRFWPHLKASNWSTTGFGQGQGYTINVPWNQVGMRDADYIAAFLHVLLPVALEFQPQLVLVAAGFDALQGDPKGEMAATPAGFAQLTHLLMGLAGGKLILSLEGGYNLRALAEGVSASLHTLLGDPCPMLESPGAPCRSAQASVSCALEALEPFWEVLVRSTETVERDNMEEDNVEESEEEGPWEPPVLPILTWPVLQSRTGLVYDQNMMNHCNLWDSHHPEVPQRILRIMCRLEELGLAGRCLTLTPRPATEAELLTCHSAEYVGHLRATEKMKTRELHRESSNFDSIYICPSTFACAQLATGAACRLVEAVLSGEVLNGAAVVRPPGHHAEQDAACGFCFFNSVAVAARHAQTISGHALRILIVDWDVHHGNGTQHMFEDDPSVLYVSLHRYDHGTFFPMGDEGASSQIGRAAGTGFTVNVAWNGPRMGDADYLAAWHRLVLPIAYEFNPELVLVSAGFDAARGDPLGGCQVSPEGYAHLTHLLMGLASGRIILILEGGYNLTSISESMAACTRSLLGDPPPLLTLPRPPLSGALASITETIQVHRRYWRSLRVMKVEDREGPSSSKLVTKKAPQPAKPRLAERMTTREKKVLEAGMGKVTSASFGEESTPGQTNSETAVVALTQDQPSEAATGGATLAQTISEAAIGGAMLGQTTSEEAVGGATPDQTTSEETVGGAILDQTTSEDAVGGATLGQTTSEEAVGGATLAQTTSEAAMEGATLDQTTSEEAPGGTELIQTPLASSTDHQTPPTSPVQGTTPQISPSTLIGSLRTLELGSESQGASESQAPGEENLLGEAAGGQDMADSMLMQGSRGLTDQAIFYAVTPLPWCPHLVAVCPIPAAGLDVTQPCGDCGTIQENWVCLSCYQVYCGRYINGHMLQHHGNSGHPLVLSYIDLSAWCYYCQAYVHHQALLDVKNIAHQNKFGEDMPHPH
Protocol: Prepare a 10 mM stock solution of a compound with DMSO. Take 10 μl of stock solution and dilute with 90 μl DMSO to become a 1 mM working solution. […] Add 30 μl trypsin/SAHA mixture (20 mM Hepes pH 8.0, 100 mM NaCl, 10 mM SAHA, 0.01 mg/ml trypsin), incubate at 23° C. for 60 minutes to terminate the reaction. Finally, read fluorescence data by Envision (390 nm excitation, 460 nm emission). […] Finally, analyze the data by XLfit5 software and calculate the IC50 value of the compound. Vorinostat (SAHA) was a positive reference compound.

Sequence of Vascular endothelial growth factor receptor 2 (P35968 whole entry): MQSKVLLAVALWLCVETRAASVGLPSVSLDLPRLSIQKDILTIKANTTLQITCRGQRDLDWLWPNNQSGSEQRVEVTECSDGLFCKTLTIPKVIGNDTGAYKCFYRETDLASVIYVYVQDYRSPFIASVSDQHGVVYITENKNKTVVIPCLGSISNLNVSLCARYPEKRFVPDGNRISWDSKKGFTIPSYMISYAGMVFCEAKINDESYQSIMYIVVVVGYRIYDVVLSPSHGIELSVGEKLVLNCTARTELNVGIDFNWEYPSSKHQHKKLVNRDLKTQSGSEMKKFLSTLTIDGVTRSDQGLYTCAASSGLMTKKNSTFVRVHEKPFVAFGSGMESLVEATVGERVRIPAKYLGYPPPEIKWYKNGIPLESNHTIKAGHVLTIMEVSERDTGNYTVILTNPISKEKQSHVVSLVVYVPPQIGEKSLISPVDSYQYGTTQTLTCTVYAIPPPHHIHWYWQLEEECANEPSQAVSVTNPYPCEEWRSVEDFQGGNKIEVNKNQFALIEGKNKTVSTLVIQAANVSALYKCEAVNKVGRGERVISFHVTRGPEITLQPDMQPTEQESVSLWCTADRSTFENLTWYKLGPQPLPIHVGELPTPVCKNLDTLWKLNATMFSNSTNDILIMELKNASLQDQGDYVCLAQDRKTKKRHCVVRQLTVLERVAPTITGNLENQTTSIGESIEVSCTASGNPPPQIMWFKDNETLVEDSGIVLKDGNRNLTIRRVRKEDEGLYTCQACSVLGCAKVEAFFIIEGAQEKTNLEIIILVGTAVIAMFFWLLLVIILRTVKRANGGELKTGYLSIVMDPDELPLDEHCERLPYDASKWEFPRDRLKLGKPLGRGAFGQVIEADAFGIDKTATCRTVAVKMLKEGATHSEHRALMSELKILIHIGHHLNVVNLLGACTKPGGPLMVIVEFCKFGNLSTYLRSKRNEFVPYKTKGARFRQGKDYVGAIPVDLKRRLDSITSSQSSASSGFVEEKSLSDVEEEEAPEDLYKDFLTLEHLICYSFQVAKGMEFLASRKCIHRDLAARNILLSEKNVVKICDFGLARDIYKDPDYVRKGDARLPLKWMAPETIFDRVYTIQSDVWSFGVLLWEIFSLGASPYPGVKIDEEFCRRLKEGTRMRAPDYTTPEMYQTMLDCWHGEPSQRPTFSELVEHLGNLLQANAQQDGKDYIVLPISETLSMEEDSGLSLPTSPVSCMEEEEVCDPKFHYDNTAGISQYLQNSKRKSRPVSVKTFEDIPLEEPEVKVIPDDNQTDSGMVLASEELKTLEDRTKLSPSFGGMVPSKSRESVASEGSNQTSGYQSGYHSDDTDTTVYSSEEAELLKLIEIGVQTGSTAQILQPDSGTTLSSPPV

IC50 [1] [nM]	IC50 (Histone deacetylase 6) [nM]	SMILES
6.6		COc1cc2c(Oc3ccc(NC(=O)C4(C(=O)Nc5ccc(F)cc5)CC4)cc3F)ccnc2cc1OCCCNCCCSC(C)=O [US12304898, Example 50]
7.7		COc1cc2c(Oc3ccc(NC(=O)C4(C(=O)Nc5ccc(F)cc5)CC4)cc3F)ccnc2cc1OCCCNCCCS [US12304898, Example 51]
3.2		COc1cc2c(Oc3ccc(NC(=O)C4(C(=O)Nc5ccc(F)cc5)CC4)cc3F)ccnc2cc1OCCCN(C)CCCSC(C)=O [US12304898, Example 52]
4.7		COc1cc2c(Oc3ccc(NC(=O)C4(C(=O)Nc5ccc(F)cc5)CC4)cc3F)ccnc2cc1OCCCN(C)CCCS [US12304898, Example 53]
20	48.3	COc1cc2c(Oc3ccc(NC(=O)C4(C(=O)Nc5ccc(F)cc5)CC4)cc3F)ccnc2cc1OCCCCCNC(=O)CSC(C)=O [US12304898, Example 57]
25	15.4	COc1cc2c(Oc3ccc(NC(=O)C4(C(=O)Nc5ccc(F)cc5)CC4)cc3F)ccnc2cc1OCCCCCNC(=O)CS [US12304898, Example 58]
12	29.9	COc1cc2c(Oc3ccc(NC(=O)C4(C(=O)Nc5ccc(F)cc5)CC4)cc3F)ccnc2cc1OCCCCNC(=O)CSC(C)=O [US12304898, Example 61]
36	97.8	COc1cc2c(Oc3ccc(NC(=O)C4(C(=O)Nc5ccc(F)cc5)CC4)cc3F)ccnc2cc1OCCCCCCNC(=O)CSC(C)=O [US12304898, Example 63]
30		COc1cc2c(Oc3ccc(NC(=O)C4(C(=O)NC5CC5)CC4)cc3F)ccnc2cc1OCCCCCNC(=O)CSC(C)=O [US12304898, Example 67]
45		CC(=O)SCC(=O)NCCCCCOc1cc2nccc(Oc3ccc(NC(=O)C4(C(=O)NC5CC5)CC4)cc3F)c2cc1C(N)=O [US12304898, Example 73]
